Consider ten molecules from article PMC11537224 (ACS Infectious Diseases, 2024).

Read-outs that look alike come from different tables or passages of the source. A value given as a limit tells only on which side of the number the result lay.

Assay [1] relates to T. brucei bloodstream forms. In words: Activity toward T. brucei bloodstream forms. To be noted: for EC50: Trypanosoma brucei, 72 h. In kind it is cell-based, T. brucei brucei Lister 427.
The target in another assay is hTS (Homo sapiens, UniProt P04818). The experiment in a line: hTS inhibition assay. Format: biochemical.
The subject of assay [2] is L. infantum promastigotes. The experiment in a line: L. infantum promastigotes viability assay. In kind it is cell-based, L. infantum MHOM/TN/80/IPT1. To be noted: Leishmania infantum, 72 h, read-out: L. infantum EC50 (μM).
Assay [3] has as its system T. brucei. To be noted: read-out: growth of parasites EC50; mean value from four diverse culture media; cited from earlier work.
The test system of assay [4] is T. brucei. To be noted: read-out: T. brucei EC50; cited from earlier work.
In the next assay the target is T1, TbPTR1 (Trypanosoma brucei brucei, UniProt O76290).
T1 sequence (O76290 1-268): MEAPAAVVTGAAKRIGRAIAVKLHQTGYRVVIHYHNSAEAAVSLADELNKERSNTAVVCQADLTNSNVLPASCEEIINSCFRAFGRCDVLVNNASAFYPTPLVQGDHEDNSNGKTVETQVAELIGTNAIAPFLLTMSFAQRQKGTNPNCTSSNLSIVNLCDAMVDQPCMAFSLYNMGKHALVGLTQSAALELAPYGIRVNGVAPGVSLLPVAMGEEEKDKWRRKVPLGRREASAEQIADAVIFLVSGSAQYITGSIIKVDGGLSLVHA
The experiment in a line: TbPTR1 inhibition assay.

The target of the next assay is T2, hDHFR (Homo sapiens, UniProt P00374).
T2 sequence (P00374 1-187): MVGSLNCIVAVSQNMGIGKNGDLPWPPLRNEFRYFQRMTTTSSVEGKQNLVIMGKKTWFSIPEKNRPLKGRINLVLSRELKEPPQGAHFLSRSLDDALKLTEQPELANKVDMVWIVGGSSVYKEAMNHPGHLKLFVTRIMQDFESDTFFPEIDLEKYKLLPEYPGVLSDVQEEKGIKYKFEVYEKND
In words: biochemical.

In another assay the target is TbTS (Trypanosoma brucei brucei, UniProt Q27783). The experiment in a line: TbDHFR-TS inhibition assay versus the TS domain. In kind it is biochemical.
Another assay addresses TbDHFR (Trypanosoma brucei brucei, UniProt Q27783). In words: biochemical.
A further assay deals with TcDHFR (Trypanosoma cruzi, UniProt Q27793). In words: TcDHFR inhibition assay. In kind it is biochemical, T. cruzi.
For the next assay, the target named is LmDHFR (Leishmania major, UniProt P07382). The experiment in a line: LmDHFR inhibition assay. In kind it is biochemical, L. major.
[5] abbreviates: read-out: T. brucei EC50 (μM) folate deficiency.

hTS, sequence (P04818 whole entry): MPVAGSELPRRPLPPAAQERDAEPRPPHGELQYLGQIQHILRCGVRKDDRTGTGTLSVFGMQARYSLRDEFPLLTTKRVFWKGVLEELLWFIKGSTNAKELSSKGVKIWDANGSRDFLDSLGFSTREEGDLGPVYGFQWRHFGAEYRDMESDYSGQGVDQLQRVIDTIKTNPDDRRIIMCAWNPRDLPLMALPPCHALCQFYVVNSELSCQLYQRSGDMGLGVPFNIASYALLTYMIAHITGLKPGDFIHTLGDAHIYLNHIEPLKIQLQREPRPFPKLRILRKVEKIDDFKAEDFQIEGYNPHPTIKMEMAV
TbTS, sequence (Q27783 whole entry, the tested form may be a part): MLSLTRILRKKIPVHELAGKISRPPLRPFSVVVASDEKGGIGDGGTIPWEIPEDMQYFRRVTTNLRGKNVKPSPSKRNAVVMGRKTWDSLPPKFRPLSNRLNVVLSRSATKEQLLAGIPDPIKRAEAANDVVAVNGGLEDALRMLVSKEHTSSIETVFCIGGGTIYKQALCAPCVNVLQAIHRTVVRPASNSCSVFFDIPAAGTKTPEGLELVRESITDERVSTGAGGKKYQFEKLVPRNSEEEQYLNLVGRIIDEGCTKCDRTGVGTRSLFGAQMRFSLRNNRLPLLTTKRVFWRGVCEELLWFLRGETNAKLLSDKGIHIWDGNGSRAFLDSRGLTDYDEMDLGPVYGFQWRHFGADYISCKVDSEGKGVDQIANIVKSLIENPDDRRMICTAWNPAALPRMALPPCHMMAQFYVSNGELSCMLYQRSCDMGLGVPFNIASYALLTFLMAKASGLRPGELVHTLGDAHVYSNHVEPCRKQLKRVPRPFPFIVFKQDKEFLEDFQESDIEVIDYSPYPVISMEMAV
TbDHFR, sequence (Q27783 whole entry): as the sequence (Q27783 whole entry, the tested form may be a part) above
TcDHFR, sequence (Q27793 whole entry): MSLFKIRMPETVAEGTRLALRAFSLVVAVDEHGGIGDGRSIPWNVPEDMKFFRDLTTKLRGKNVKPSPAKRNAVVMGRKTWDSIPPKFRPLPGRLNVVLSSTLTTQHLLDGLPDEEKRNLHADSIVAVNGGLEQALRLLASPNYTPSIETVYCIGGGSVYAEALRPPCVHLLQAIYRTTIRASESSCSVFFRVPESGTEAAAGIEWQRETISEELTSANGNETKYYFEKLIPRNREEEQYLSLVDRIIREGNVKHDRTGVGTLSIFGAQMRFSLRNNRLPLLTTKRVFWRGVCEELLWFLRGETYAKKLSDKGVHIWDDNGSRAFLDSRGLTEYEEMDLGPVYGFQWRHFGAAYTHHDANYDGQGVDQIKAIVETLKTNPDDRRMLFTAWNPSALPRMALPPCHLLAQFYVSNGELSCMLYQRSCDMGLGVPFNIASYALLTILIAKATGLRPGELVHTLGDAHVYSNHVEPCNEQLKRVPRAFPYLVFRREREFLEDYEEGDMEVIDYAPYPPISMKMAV
LmDHFR, sequence (P07382 whole entry): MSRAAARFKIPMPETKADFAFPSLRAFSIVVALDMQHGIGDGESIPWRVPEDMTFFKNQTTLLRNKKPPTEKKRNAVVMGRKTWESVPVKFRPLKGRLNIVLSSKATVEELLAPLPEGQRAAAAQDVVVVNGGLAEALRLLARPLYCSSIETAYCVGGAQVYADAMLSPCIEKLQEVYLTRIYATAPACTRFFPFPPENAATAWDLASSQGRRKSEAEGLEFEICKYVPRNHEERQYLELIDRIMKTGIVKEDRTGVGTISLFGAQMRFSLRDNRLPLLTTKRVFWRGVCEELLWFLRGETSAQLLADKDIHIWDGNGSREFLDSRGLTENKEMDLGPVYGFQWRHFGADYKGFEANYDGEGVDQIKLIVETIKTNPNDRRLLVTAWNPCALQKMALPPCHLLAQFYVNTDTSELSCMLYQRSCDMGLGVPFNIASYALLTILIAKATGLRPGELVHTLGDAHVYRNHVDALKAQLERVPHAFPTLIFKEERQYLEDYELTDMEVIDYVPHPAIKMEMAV

Turning to `CCc1nc(N)nc(N)c1-c1ccc(Cl)cc1` [Pyr, pyrimethamine, reference compound], the figures for the EC50 in assay [1] (read-out: T. brucei EC50 (μM)), in assay [1] (setting [5]) and in assay [2] were 17.3 µM, 2.08 µM and 99.2 µM, respectively. The Ki at hTS was 11.8 µM.
`Cc1ccc2nc(N)[nH]c(=O)c2c1Sc1ccncc1` [nolatrexed]: the EC50 in the assay on T. brucei [3] is around 32 µM.
With `CN(Cc1cnc2nc(N)nc(N)c2n1)c1ccc(C(=O)N[C@@H](CCC(=O)O)C(=O)O)cc1` [MTX, methotrexate, reference compound], the “EC50 enhancement in folate deficiency medium versus standard medium” value in assay [1] (T. brucei, 23.3 μM to 5.4 nM) turned out to be 4300 fold. Moreover, the EC50 worked out at 23.3 µM in [1] (read-out: T. brucei EC50 (μM)) and 0.0054 µM in assay [1] (setting [5]).
Regarding `CC1(C)N=C(N)N=C(N)N1c1ccc(Cl)cc1` [Cyc, cycloguanil, reference compound], the EC50 was above 25 µM in the assay on T. brucei [4], above 80 µM in assay [1] (read-out: T. brucei EC50 (μM)), 27.2 µM in assay [1] (setting [5]) and above 80 µM in assay [2]. On TbPTR1, this molecule showed a Ki of 4.16 µM.
On to `N=C(N)Nc1nc2cc(Cl)cc(Cl)c2[nH]1` [2d, 4,6-Dichloro-2-guanidinobenzimidazole], for which the values for the EC50 in assay [1] (read-out: T. brucei EC50 (μM)), in assay [1] (setting [5]) and in assay [2] were 2.91 µM, 5.97 µM and 6.62 µM, respectively. The Ki on hTS is above 500 µM; at hDHFR it was 4.36 µM; at TbTS, 20.3 µM; on TbPTR1, 4.94 µM; at TbDHFR, 0.113 µM.
Consider `Cc1cc2nc(NC(=N)N)[nH]c2cc1C` [2g, 5,6-Dimethyl-2-guanidinobenzimidazole], for which the values for the EC50 in assay [1] (read-out: T. brucei EC50 (μM)), in assay [1] (setting [5]) and in assay [2] were 14.5 µM, 13.8 µM and above 20 µM, respectively. The Ki at TcDHFR was 0.6 µM; at hTS, above 500 µM; on hDHFR, 3.55 µM; on TbTS, 18.2 µM; at TbPTR1, 54 µM; on LmDHFR, 1.04 µM. In addition, at TbDHFR, affinity was put at a Ki of 0.009 µM. In addition, the “drop-off in potency TcDHFR versus TbDHFR” value at TcDHFR (Ki TcDHFR versus Ki TbDHFR) was found to be 67 fold.
`CCCCCCCCCCCCCCCCOP(=O)([O-])OCC[N+](C)(C)C` [MLF, miltefosine, reference compound]: in assay [2], the EC50 stood at 10.9 µM.
With `N=C(N)Nc1nc2cc(Cl)c(Cl)cc2[nH]1` [2c, 5,6-Dichloro-2-guanidinobenzimidazole], the EC50 in assay [1] (read-out: T. brucei EC50 (μM)) was 7.8 µM; in [1] (setting [5]) it was 6.52 µM; in assay [2], 22.5 µM. Also, the Ki is above 500 µM at hTS; 1.51 µM at hDHFR; 50.3 µM at TbTS; 3.23 µM on TbPTR1; 1.58 µM at LmDHFR; 0.66 µM on TbDHFR.
On to `N=C(N)Nc1nc2ccccc2[nH]1` [2a, 2-Guanidinobenzimidazole], for which the EC50 in assay [1] (read-out: T. brucei EC50 (μM)), in [1] (setting [5]) and in assay [2] was above 20 µM each time. Moreover, the Ki was above 500 µM at hTS; 2.21 µM on hDHFR; 23.6 µM at TbTS; 13.3 µM at TbPTR1; 0.029 µM at TbDHFR.
Take `N=C(N)c1ccc(OCCCCCOc2ccc(C(=N)N)cc2)cc1` [PENT, pentamidine, reference compound]: in assay [1] (read-out: T. brucei EC50 (μM)), the EC50 is 0.0041 µM.

In general, EC50 refers to the concentration that produces a half-maximal response. For orientation: Ki means the dissociation constant of the complex between target and ligand, obtained from inhibition or displacement. Read a high Ki as a looser hold on the target.
